This assay deals with HCT116. The following applies: 72 h. In short, it runs like this:
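In 1536-well plates, 250 HCT116 cells per well were seeded and left for 5 h to attach. Luminescence from CellTiter-Glo was set against vehicle (0%) and positive control (-100%), and pattern correction was applied. IC50 and maximal efficacy come from four-parameter Hill fitting.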

Here are results for 60 molecules from the supplement of paper PMC12137928.

Molecules are shown by their SMILES. Where only a bound is given, the exact number is not on record here.

With `CC(O)COc1ccccc1` (stereo not given) [1-Phenoxy-2-propanol], the IC50 cell viability was over 45.8 µM (ICRF193 0 nM) and over 45.8 µM (ICRF193 200 nM).
As for `CCC(O)c1ccccc1` (stereo not given) [1-Phenyl-1-propanol], the IC50 cell viability runs as follows: (ICRF193 0 nM) over 45.8 µM; (ICRF193 200 nM) over 45.8 µM.
For the molecule `Nc1ccn([C@H]2CC[C@@H](CO)O2)c(=O)n1` [2',3'-Dideoxycytidine], the IC50 cell viability is over 45.8 µM (ICRF193 0 nM) and over 45.8 µM (ICRF193 200 nM).
Take `O=c1[nH]cnc2c1ncn2[C@H]1CC[C@@H](CO)O1` [2',3'-Dideoxyinosine]: the IC50 cell viability is, setting by setting: (ICRF193 0 nM) over 45.8 µM; (ICRF193 200 nM) over 45.8 µM.
As for `COc1ccc(C(=O)c2ccccc2O)c(O)c1` [2,2'-Dihydroxy-4-methoxybenzophenone], the IC50 cell viability reads like this: (ICRF193 0 nM) over 45.8 µM; (ICRF193 200 nM) over 45.8 µM.
Turning to `c1ccc2sc(SSc3nc4ccccc4s3)nc2c1` [2,2'-Dithiobisbenzothiazole], the IC50 cell viability runs as follows: (ICRF193 0 nM) over 45.8 µM; (ICRF193 200 nM) over 45.8 µM.
Turning to `CCCCCCCC(=O)OCC(O)CO` (stereo not given) [2,3-Dihydroxypropyl octanoate], the IC50 cell viability is over 45.8 µM (ICRF193 0 nM) and over 45.8 µM (ICRF193 200 nM).
Turning to `OCc1ccc(Cl)cc1Cl` [2,4-Dichlorobenzyl alcohol], the IC50 cell viability was over 45.8 µM (ICRF193 0 nM) and over 45.8 µM (ICRF193 200 nM).
Consider `O=[N+]([O-])c1cc(I)c(O)c(I)c1` [2,6-DIIODO-4-NITROPHENOL], for which the IC50 cell viability (ICRF193 0 nM) was over 45.8 µM and the IC50 cell viability (ICRF193 200 nM) is over 45.8 µM.
Turning to `CCCCCCCCCCCCOCCO` [2-(Dodecyloxy)ethanol], the IC50 cell viability is over 45.8 µM (ICRF193 0 nM) and over 45.8 µM (ICRF193 200 nM).
Consider `O=[N+]([O-])C(Br)(CO)CO` [2-Bromo-2-nitro-1,3-propanediol], for which the IC50 cell viability is over 45.8 µM (ICRF193 0 nM) and over 45.8 µM (ICRF193 200 nM).
As to `NC(=O)c1ccc([N+](=O)[O-])cc1Cl` [2-Chloro-4-nitrobenzamide], the IC50 cell viability runs as follows: (ICRF193 0 nM) over 45.8 µM; (ICRF193 200 nM) over 45.8 µM.
Take `CCOc1ccccc1C(N)=O` [2-Ethoxybenzamide]: the IC50 cell viability is over 45.8 µM (ICRF193 0 nM) and over 45.8 µM (ICRF193 200 nM).
For `CCCC(O)C(CC)CO` (stereo not given) [2-Ethyl-1,3-hexanediol], the IC50 cell viability is over 45.8 µM (ICRF193 0 nM) and over 45.8 µM (ICRF193 200 nM).
With `CCCCC(CC)COC(=O)c1ccc(N(C)C)cc1` (stereo not given) [2-Ethylhexyl 4-(dimethylamino)benzoate], the IC50 cell viability was over 45.8 µM (ICRF193 0 nM) and over 45.8 µM (ICRF193 200 nM).
Molecule `CCCCC(CC)COC(=O)c1ccccc1O` (stereo not given) [2-Ethylhexyl salicylate] showed an IC50 cell viability (ICRF193 0 nM) of over 45.8 µM and an IC50 cell viability (ICRF193 200 nM) of over 45.8 µM.
On to `COc1ccc(C(=O)c2ccccc2)c(O)c1` [2-Hydroxy-4-methoxybenzophenone], for which the IC50 cell viability reads like this: (ICRF193 0 nM) over 45.8 µM; (ICRF193 200 nM) over 45.8 µM.
Regarding `O=C(Nc1ccc(O)cc1)c1ccccc1O` [2-Hydroxy-N-(4-hydroxyphenyl)-benzamide], the IC50 cell viability was over 45.8 µM (ICRF193 0 nM) and over 45.8 µM (ICRF193 200 nM).
As for `CCCCCCCCCCCCCCCCCC(=O)OCCO` [2-Hydroxyethyl octadecanoate], the IC50 cell viability reads like this: (ICRF193 0 nM) over 45.8 µM; (ICRF193 200 nM) over 45.8 µM.
Take `O=C(O)CNC(=O)c1ccccc1I` [2-Iodohippuric acid]: the IC50 cell viability by setting is: (ICRF193 0 nM) over 45.8 µM; (ICRF193 200 nM) over 45.8 µM.
As for `Sc1nc2ccccc2s1` [2-Mercaptobenzothiazole], the IC50 cell viability is, setting by setting: (ICRF193 0 nM) over 45.8 µM; (ICRF193 200 nM) over 45.8 µM.
Consider `CCCCCCCCCCC(CO)CCCCCCCC` (stereo not given) [2-Octyl-1-dodecanol], for which the IC50 cell viability runs as follows: (ICRF193 0 nM) over 45.8 µM; (ICRF193 200 nM) over 45.8 µM.
For `OCCOc1ccccc1` [2-Phenoxyethanol], the IC50 cell viability reads like this: (ICRF193 0 nM) over 45.8 µM; (ICRF193 200 nM) over 45.8 µM.
In the case of `OCCc1ccccc1` [2-Phenylethanol], the IC50 cell viability is over 45.8 µM (ICRF193 0 nM) and over 45.8 µM (ICRF193 200 nM).
Regarding `O=C1CC[C@@H](C(=O)O)N1` [2-Pyrrolidone-5-carboxylic acid], the IC50 cell viability is, setting by setting: (ICRF193 0 nM) over 45.8 µM; (ICRF193 200 nM) over 45.8 µM.
With `O=C(O)c1ccccc1S` [2-Thiosalicylic acid], the IC50 cell viability runs as follows: (ICRF193 0 nM) over 45.8 µM; (ICRF193 200 nM) over 45.8 µM.
Turning to `Cc1cc(Nc2ccccc2C(=O)O)ccc1Cl` [2-[(4-Chloro-3-methylphenyl)amino]benzoic acid], the IC50 cell viability was over 45.8 µM (ICRF193 0 nM) and over 45.8 µM (ICRF193 200 nM).
In turn, `Cc1cn([C@H]2C[C@H](N=[N+]=[N-])[C@@H](CO)O2)c(=O)[nH]c1=O` [3'-Azido-3'-deoxythymidine] had an IC50 cell viability (ICRF193 0 nM) of over 45.8 µM and an IC50 cell viability (ICRF193 200 nM) of over 45.8 µM.
As to `CC1CC(OC(=O)c2ccccc2O)CC(C)(C)C1` (stereo not given) [3,3,5-Trimethylcyclohexyl salicylate], the IC50 cell viability is over 45.8 µM (ICRF193 0 nM) and over 45.8 µM (ICRF193 200 nM).
For the molecule `CCCCCCCCCCCCCCCCCCOCC(O)CO` (stereo not given) [3-(Octadecyloxy)-1,2-propanediol], the IC50 cell viability (ICRF193 0 nM) is over 45.8 µM and the IC50 cell viability (ICRF193 200 nM) is over 45.8 µM.
For `OCCCNc1ccccc1` [3-Anilinopropan-1-ol], the IC50 cell viability was over 45.8 µM (ICRF193 0 nM) and over 45.8 µM (ICRF193 200 nM).
Turning to `CCOc1ccc(NC(=O)CC(C)O)cc1` (stereo not given) [3-Hydroxy-4-butyrophenetidide], the IC50 cell viability is over 45.8 µM (ICRF193 0 nM) and over 45.8 µM (ICRF193 200 nM).
For `CC(C)CCON=O` [3-Methylbutyl nitrite], the IC50 cell viability is, setting by setting: (ICRF193 0 nM) over 45.8 µM; (ICRF193 200 nM) over 45.8 µM.
Regarding `Cc1c[nH]c2ccccc12` [3-Methylindole], the IC50 cell viability is, setting by setting: (ICRF193 0 nM) over 45.8 µM; (ICRF193 200 nM) over 45.8 µM.
Regarding `CC(C)(C)CC(C)(C)c1ccc(O)cc1` [4-(1,1,3,3-Tetramethylbutyl)phenol], the IC50 cell viability by setting is: (ICRF193 0 nM) over 45.8 µM; (ICRF193 200 nM) over 45.8 µM.
In the case of `CC(=O)Nc1ccc(C(=O)O)cc1` [4-Acetamidobenzoic acid], the IC50 cell viability by setting is: (ICRF193 0 nM) over 45.8 µM; (ICRF193 200 nM) over 45.8 µM.
As to `CC(=O)Nc1ccc(CC(=O)O)cc1` [4-Acetylaminophenylacetic acid], the IC50 cell viability reads like this: (ICRF193 0 nM) over 45.8 µM; (ICRF193 200 nM) over 45.8 µM.
As to `Nc1ccc(C(=O)O)cc1` [4-Aminobenzoic acid], the IC50 cell viability was over 45.8 µM (ICRF193 0 nM) and over 45.8 µM (ICRF193 200 nM).
Regarding `Nc1ccncc1` [4-Aminopyridine], the IC50 cell viability (ICRF193 0 nM) was over 45.8 µM and the IC50 cell viability (ICRF193 200 nM) was over 45.8 µM.
As to `C[C@]12CCC(=O)C=C1CC[C@@H]1[C@@H]2CC[C@]2(C)C(=O)CC[C@@H]12` [4-Androstene-3,17-dione], the IC50 cell viability by setting is: (ICRF193 0 nM) over 45.8 µM; (ICRF193 200 nM) over 45.8 µM.
`Cc1cc(O)cc(C)c1Cl` [4-Chloro-3,5-dimethylphenol] had an IC50 cell viability (ICRF193 0 nM) of over 45.8 µM and an IC50 cell viability (ICRF193 200 nM) of over 45.8 µM.
The molecule `Cc1cc(O)ccc1Cl` [4-Chloro-3-methylphenol] returned an IC50 cell viability (ICRF193 0 nM) of over 45.8 µM and an IC50 cell viability (ICRF193 200 nM) of over 45.8 µM.
In turn, `Oc1ccc(Cl)cc1` [4-Chlorophenol] registered an IC50 cell viability (ICRF193 0 nM) of over 45.8 µM and an IC50 cell viability (ICRF193 200 nM) of over 45.8 µM.
In turn, `Cc1c(N(C)C)c(=O)n(-c2ccccc2)n1C` [4-Dimethylaminoantipyrine] had an IC50 cell viability (ICRF193 0 nM) of over 45.8 µM and an IC50 cell viability (ICRF193 200 nM) of over 45.8 µM.
Consider `CCCCCCc1ccc(O)cc1O` [4-Hexylresorcinol], for which the IC50 cell viability reads like this: (ICRF193 0 nM) over 45.8 µM; (ICRF193 200 nM) over 45.8 µM.
With `O=[N+]([O-])c1cc([As](=O)(O)O)ccc1O` [4-Hydroxy-3-nitrophenylarsonic acid], the IC50 cell viability is, setting by setting: (ICRF193 0 nM) over 45.8 µM; (ICRF193 200 nM) over 45.8 µM.
For `COc1ccc(/C=C/C(=O)O)cc1` [4-Methoxycinnamic acid], the IC50 cell viability was over 45.8 µM (ICRF193 0 nM) and over 45.8 µM (ICRF193 200 nM).
Regarding `COc1ccc(O)cc1` [4-Methoxyphenol], the IC50 cell viability was over 45.8 µM (ICRF193 0 nM) and over 45.8 µM (ICRF193 200 nM).
As to `Cc1cc(=O)oc2cc(O)ccc12` [4-Methylumbelliferone], the IC50 cell viability is, setting by setting: (ICRF193 0 nM) over 45.8 µM; (ICRF193 200 nM) over 45.8 µM.
As to `O=S(=O)(O)c1ccc(O)cc1` [4-Phenolsulfonic acid], the IC50 cell viability is, setting by setting: (ICRF193 0 nM) over 45.8 µM; (ICRF193 200 nM) over 45.8 µM.
Consider `CCCc1ccc(C(=O)O)cc1` [4-Propylbenzoic acid], for which the IC50 cell viability runs as follows: (ICRF193 0 nM) over 45.8 µM; (ICRF193 200 nM) over 45.8 µM.
As for `C(=C\c1ccncc1)/c1ccccc1` [4-Styrylpyridine], the IC50 cell viability by setting is: (ICRF193 0 nM) over 45.8 µM; (ICRF193 200 nM) over 45.8 µM.
For `O=C1NC(=O)C(c2ccccc2)(c2ccccc2)N1` [5,5-Diphenylhydantoin], the IC50 cell viability is over 45.8 µM (ICRF193 0 nM) and over 45.8 µM (ICRF193 200 nM).
In the case of `Cc1ccc2c(Cl)cc(Cl)c(O)c2n1` [5,7-Dichloro-8-hydroxy-2-methylquinoline], the IC50 cell viability is, setting by setting: (ICRF193 0 nM) over 45.8 µM; (ICRF193 200 nM) over 45.8 µM.
Regarding `Nc1ccc(O)c(C(=O)O)c1` [5-Aminosalicylic acid], the IC50 cell viability (ICRF193 0 nM) is over 45.8 µM and the IC50 cell viability (ICRF193 200 nM) was over 45.8 µM.
With `Cn1sc(Cl)cc1=O` [5-Chloro-2-methyl-3(2H)-isothiazolone], the IC50 cell viability is over 45.8 µM (ICRF193 0 nM) and over 45.8 µM (ICRF193 200 nM).
On to `CCCCC[C@H](O)C=C[C@@H]1[C@@H](C/C=C/CCCC(=O)O)[C@H](O)C[C@H]1O` [5-trans Prostaglandin F2?], for which the IC50 cell viability was over 45.8 µM (ICRF193 0 nM) and over 45.8 µM (ICRF193 200 nM).
Turning to `CC(C)CCC[C@@H](C)[C@H]1CC[C@H]2[C@@H]3CC[C@H]4C[C@@H](O)CC[C@]4(C)[C@H]3CC[C@]12C` [5alpha-Cholestan-3beta-ol], the IC50 cell viability is, setting by setting: (ICRF193 0 nM) over 45.8 µM; (ICRF193 200 nM) over 45.8 µM.
`CC1(C)S[C@@H]2[C@H](N)C(=O)N2[C@H]1C(=O)O` [6-Aminopenicillanic acid] came in with an IC50 cell viability (ICRF193 0 nM) of over 45.8 µM and an IC50 cell viability (ICRF193 200 nM) of over 45.8 µM.
Regarding `Cc1cc(O)c(C(C)C)cc1Cl` [6-Chlorothymol], the IC50 cell viability is over 45.8 µM (ICRF193 0 nM) and over 45.8 µM (ICRF193 200 nM).
